The values that follow come from patent US5624894A, “Brain-enhanced delivery of neuroactive peptides by sequential metabolism” (University of Florida, priority 1995, dated 1997).

Data set [1] is described as follows: Stability and water solubility observed during synthesis. As to conditions: reaction work-up. It is filed as physicochemical. The procedure: In all cases before the N-alkylation step, the intermediates were purified by chromatography. In order to avoid side reactions, the N-methylations were performed at room temperature (20°-25° C.) with a slight excess of alkylating agent. The reductions with sodium dithionite were accomplished by cooling at 0°-5° C. in oxygen-free conditions at a pH of approximately 7. The quaternary salts are fairly stable when isolated, but the dihydropyridine derivatives are easily oxidized or hydroxylated and in acid conditions react readily with water.
Trigonellyl-Ala-Tyr-Arg-cholesteryl ester methylsulfate (0.09 g, […]) (30) was dissolved in 20 ml of H2 O, then NaHCO3 (0.05 g, […]) and Na2 S2 O4 (0.07 g, 0.04 mmol) were added in small portions while stirring at 0° C. The reaction vessel was stoppered under nitrogen and allowed to stir for 1.5 hours at 0° C. […] The extraction was repeated 3 times, the organic layers were combined and the solvent was removed in vacuo, to afford 0.056 g of compound (31), yield 62.2%.

The subject of data set [2] is opioid ([^3 H]diprenorphine-based competitive assay). Briefly: [3H]diprenorphine-based competitive assay. It is filed as binding. As to conditions: read-out: 50 percent inhibitory concentration (IC50). The source says:
The test procedure is described hereinbelow following the EXAMPLES, and the results are shown in Tables 5-8 and FIGS. 3-5 for (A) where [SEQ. ID NO. 27] YAGFL is [D-Ala^2 ]-[D-Leu]-enkephalin; i.e., Compound (64) in the EXAMPLES. The targetor-peptide conjugates (C), such as compound (70), are weak opioids. The 50 percent inhibitory concentration (IC50) measured with [^3 H]diprenorphine-based competitive assay is about 10^-7 M, an order of magnitude less than the IC50 of about 10^-8 M for the enkephalin analogs. At the measured 500 to 700 pmol/g tissue concentration, even these weak opioids exert significant analgesic activity. The enkephalin analog may also be released slowly from the targetor-peptide conjugate in vivo, and contribute to the CNS activity. No analgesia was observed after the intravenous administration of the unmanipulated enkephalins, which are membrane-impermeable and unprotected toward various peptide-degrading enzymes, nor after the injection of the partially conjugated (either with the targetor or with cholesteryl) peptides. Modification of the spacer (S) function may allow for the peptidolytic release of the parent peptide from the conjugate at a desired rate, depending on the therapeutic objective.

Data set [3] has as its system Swiss Webster mice. Briefly: Methohexital (barbiturate)-induced sleeping time in mice after i.v. injection. As to conditions: for methohexital induced sleeping time, individual animals / methohexital induced sleeping time, mean: methohexital 90 mg/kg i.p. 10 min later; for methohexital induced sleeping time, individual animals / methohexital induced sleeping time, mean / No. of Death / behavior / symptoms of animals after i.v. administration: mice. It is filed as in vivo. The source says:
Two representative chemical delivery systems (CDS's) of the invention for the TRH analog [Leu^2 ]-TRH, i.e., compound (8) of Scheme I/EXAMPLE 8, which has an alanine spacer, and compound (12) of Scheme II/Example 12, which has an alanine-alanine spacer, were studied for their effects on the barbiturate-induced sleeping time in mice. TRH is known to antagonize the reduction in cholinergic activity induced by barbiturates. Thus, the activational effects of the CDS's for TRH analogs on cholinergic neurons can be measured by quantitating the antagonism of pentobarbital-induced sleeping and barbiturate-induced reduction in cholinergic neuronal activity.
Swiss Webster mice weighing 30±2 g were used. The compounds were dissolved in a vehicle consisting of DMSO, ethanol and 50% (w/w) 2-hydroxypropyl-β-cyclodextrin at a ratio of 1:2:1 (15 mg/ml). CDS's at a dose of 30 mg/kg were injected in the animals through the tail vein. Vehicle only and an equimolar dose of TRH and [Leu^2 ]-TRH, 10 mg/kg, were also administered to compare CNS activities. Ten minutes after i.v. injection of the compound, each animal received an intraperitoneal injection of sodium methohexital solution (45 mg/ml) at a dose of 90 mg/kg. The sleeping time was recorded as the time elapsed from the onset of loss of the […] until the reflex was regained. Each compound and the vehicle control were tested on 5-11 animals. The statistical analysis was performed using the Student's t test.

A short description of data set [4]: Detection of peptide conjugates in rat brain tissue and blood by electrospray ionization MS after i.v. compound (A). It is filed as in vivo. The settings on record: 15 minutes after i.v. compound (A) for [D-Ala2]-Leu-enkephalin, 20 mg/kg, rats; estimated. The source says:
This approach has been evaluated by using electrospray ionization mass spectrometry, which provides the specificity necessary to monitor the biotransformation processes that occur after delivery. In vivo distribution studies with rats as experimental models (described in detail below) have shown that, upon systemic administration, the modified peptide can partition by passive, nonsaturable transport into the brain which is inaccessible to the unmanipulated compound. At this first step, the modified peptide simply enters the brain because of its lipoidal nature. The targetor moiety, however, undergoes an enzyme-mediated oxidation analogous to the endogenous NAD(P)H.revreaction.NAD(P)^+ coenzyme associated with numerous oxidoreductases and cellular respiration. […]
Detection of the peptide conjugates in the brain tissue by electrospray ionization mass spectrometry was carried out after systemic administration of compound (A). […] The solvent was removed under a dry nitrogen stream, and the reconstituted (in 50% methanol plus 50% water containing 3% acetic acid) sample was analyzed by electrospray ionization mass spectrometry at 5 μl/minute flow rate. […] Quantification was based on comparing the peak intensity to that obtained from the brain sample of an untreated animal spiked with a known amount of compound (C).

The test system of data set [5] is brain peptidases (rat brain homogenate). Briefly: Incubation of targetor-peptide conjugate in rat brain homogenate. It is filed as in vitro ADME. The settings on record: 30 nmol in 1 ml 20% rat brain homogenate, pH 7.4 Tris, 37° C., 0.5 and 2 hours. How it is done: Compound (C) (30 nmol) was added to one ml rat brain homogenate (20%, w/w, in pH 7.4 Tris buffer), and the mixture was incubated at 37° C. Aliquots (250 t l) were removed 0.5 and 2 hours after incubation, and electrospray ionization mass spectra were obtained after sample preparation identical to that described above. Proteolytic cleavages are identified by the m/z of the products, and the corresponding structures are shown in the Scheme.

The conditions of data set [6]: ACTH4-9 analog, behavioral effects; cited from earlier work.
Setting [7] is: Table 1 experiment, CDS 30 mg/kg i.v.
Setting [8] is: Table 2 experiment, 10 mg/kg i.v.
Setting [9] is: Table 1 experiment, 10 mg/kg i.v. (equimolar).

Where “and” joins values, the source holds several entries; their conditions need not be identical. Equal entries are not always repeated. Square brackets hold non-standard residues; d marks the D form. Ends that are not written are not given here. Peptide text beside a SMILES is read from it. * marks the point of attachment. O(cholesteryl) = CC(C)CCC[C@@H](C)[C@H]1CC[C@H]2[C@@H]3CC=C4C[C@@H](O*)CC[C@]4(C)[C@H]3CC[C@]12C; Nicotinoyl(1-Me-1,4-dihydro) = CN1C=CCC(C(=O)*)=C1; pGlu = O=C1CC[C@@H](C(=O)O)N1; X1 = C[n+]1cccc(C(=O)*)c1

Turning to `CC(C)CCC[C@@H](C)[C@H]1CC[C@H]2[C@@H]3CC=C4C[C@@H](OC(=O)[C@H](CCCNC(=N)N)NC(=O)[C@H](Cc5ccc(O)cc5)NC(=O)[C@H](C)NC(=O)C5=CN(C)C=CC5)CC[C@]4(C)[C@H]3CC[C@]12C` [(31), 1,4-Dihydrotrigonellyl-Ala-Tyr-Arg-Cholesteryl Ester], in data set [1], the “solubility in water (in words)” value was “not soluble in water”.

`CC(C)C[C@@H](NC(=O)[C@H](Cc1ccccc1)NC(=O)CNC(=O)[C@@H](C)NC(=O)[C@H](Cc1ccc(O)cc1)NC(=O)[C@H](C)NC(=O)c1ccc[n+](C)c1)C(=O)O` [(70), Trigonellyl-Ala-Tyr-D-Ala-Gly-Phe-D-Leu-OH Methylsulfate] (X1-AY[dA]GF[dL]-OH): the IC50 in data set [2] was approximately 100 nM.

As for `CC(C)CCC[C@@H](C)[C@H]1CC[C@H]2[C@@H]3CC=C4C[C@@H](OC(=O)CNC(=O)[C@@H]5CCCN5C(=O)[C@H](CC(C)C)NC(=O)[C@H](CCC(N)=O)NC(=O)[C@H](C)NC(=O)[C@H](C)NC(=O)C5=CN(C)C=CC5)CC[C@]4(C)[C@H]3CC[C@]12C` [Compound (12), 1,4-Dihydrotrigonellyl-Ala-Ala-Gln-Leu-Pro-Gly-Cholesteryl Ester] ({Nicotinoyl(1-Me-1,4-dihydro)}-AAQLPG-{O(cholesteryl)}), in data set [3] (setting [7]), the “methohexital induced sleeping time, individual animals” value is 12.08 min and 17.18 min and 27.05 min and 10.07 min and 16.40 min and 19.00 min and 8.13 min and 15.38 min and 17.93 min and 9.45 min; the “methohexital induced sleeping time, mean” value is 15.27 min; the “No. of Death” value stood at 1.

Regarding `NC(=O)[C@@H]1CCCN1C(=O)[C@H](Cc1cnc[nH]1)NC(=O)[C@@H]1CCC(=O)N1` [TRH, PyroGlu-His-Pro-NH2], in data set [3] (setting [8]), the “methohexital induced sleeping time, individual animals” value was 20.47 min and 23.90 min and 15.00 min and 12.90 min and 11.17 min and 11.77 min and 40.82 min; the “methohexital induced sleeping time, mean” value is reported as 19.43 min; the “No. of Death” value is on record as 2. Moreover, the “behavior / symptoms of animals after i.v. administration” value in data set [3] is “tremor, tail-elevation and piloerection”.

Turning to `CC(C)C[C@H](NC(=O)[C@@H]1CCC(=O)N1)C(=O)N1CCC[C@H]1C(N)=O` [[Leu^2]-TRH, PyroGlu-Leu-Pro-NH2] ([pGlu]-Leu-Pro-NH2), in data set [3] (setting [9]), the “methohexital induced sleeping time, individual animals” value is 33.95 min and 37.37 min and 28.22 min and 15.03 min and 33.63 min and 20.90 min and 27.97 min and 36.80 min; the “methohexital induced sleeping time, mean” value was determined as 29.23 min. Besides, in data set [3] (setting [8]), the “methohexital induced sleeping time, individual animals” value is 15.18 min and 11.95 min and 12.47 min and 11.17 min and 8.53 min and 8.02 min; the “methohexital induced sleeping time, mean” value amounted to 11.22 min. Besides, in data set [3] (first experiment (Table 1), compared to control or [Leu2]-TRH), the “effect on barbiturate-induced sleeping time (in words)” value is “no significant difference between the control and [Leu^2 ]-TRH”. In addition, the “behavior / symptoms of animals after i.v. administration” value in data set [3] is recorded as “a few animals (1-2) showed the same symptoms as in the case of TRH”. The “effect on sleeping time (in words)” value in data set [3] (second experiment (Table 2), compared to TRH or vehicle control) was “significantly reduced”.

In the case of “Compound (C): locked-in targetor-peptide conjugate (m/z 760) of [D-Ala2]-Leu-enkephalin, formed from compound (B) by cleavage of the cholesteryl ester ({N‑methylnicotinoyl}-AY[dA]GFL; not fully specified)”, in data set [4], the “level in brain tissue” value is listed as 500-700 picomole/g tissue. The “processing in rat brain homogenate (in words)” value in data set [5] is given as “processed by the brain peptidases similarly to the unmanipulated compound”.

As for “Org 2766: very active ACTH4-9 analog with oxidized methionine at 4, D-lysine at 8, phenylalanine at 9 (MEHF[dK]F; not fully specified (residue 1); printed as Met Glu His Phe Lys Phe)”, the potentiation in data set [6] was 1000 fold.
